Experimental data: patent US20240285634A1, “COMPOUND AND METHOD FOR TREATING CHEMOTHERAPY-ASSOCIATED GASTROINTESTINAL SIDE EFFECTS” (ONQUALITY PHARMACEUTICALS CHINA LTD., priority 2021, published 2024)

Test system: Chemotherapeutic agent-caused constipation models of Balb/c mice
Test: Relieving effect on constipation caused by a chemotherapeutic agent (Examples 202-364)
Format: in vivo
Description: Construction of mouse animal models: Chemotherapeutic agent-caused constipation models of Balb/c mice were constructed according to the administration mode and frequency of the chemotherapeutic agent as shown in Table 4. […] Thus, chemotherapeutic agent-caused constipation models of mice are very good models to mimic constipation caused by the chemotherapeutic agent.
Balb/c mice were fed for 1 week, and then divided into groups. The experiment was divided into a control group, a chemotherapeutic agent group, and a group of the compound as shown in Formula I, each of which comprised 10 mice, to perform the administration experiment, for which the administration dosage, mode, time and frequency were shown in Table 4. The control group: being injected or intragastrically administered with the same solvent as that used in the group of the compound as shown in Formula I (the administration mode and time were shown in Table 4), and then being injected or intragastrically administered with the same solvent as that used in the chemotherapeutic agent group (the administration mode was shown in Table 4); the chemotherapeutic agent group: being injected or intragastrically administered with the same solvent as that used in the group of the compound as shown in Formula I (the administration mode and time was shown in Table 4), and then being injected or intragastrically administered with the chemotherapeutic agent (the type, administration mode and dosage were shown in Table 4); the group of the compound as shown in Formula I: being injected or intragastrically administered with the compound as shown in Formula I (the administration mode and time was shown in Table 4), and then being administered with the chemotherapeutic agent (the administration mode and dosage were shown in Table 4).
The feces reduction rate was calculated with reference to the method of Ji Eun Kim (Lab Anim Res. 2016 December; 32(4): 231-240.). Feces reduction rate (%)=(the control group−the chemotherapeutic agent group or the group of the compound as shown in Formula I)/the control group*100%
It is regarded as effective remission when the feces reduction rate of mice in the group of the compound as shown in Formula I is reduced compared with that in the chemotherapeutic agent group.
The feces amount of mice within 3 hours was observed and recorded every day. At the end of the experiment, the number of mice in the group of the compound as shown in Formula I whose feces reduction rate was lower than that of mice in the chemotherapeutic agent group was recorded. Table 4 lists various animal experiment combinations of chemotherapeutic agents and the compound as shown in Formula I, as well as the corresponding experimental results.

CN1CCN(c2ccc(Nc3ncc4cc5n(c4n3)C3(CCCCC3)CNC5=O)nc2)CC1 [Compound I, Trilaciclib]
Relative remission rate (%) (Example 202, Fluorouracil (5-Fu) intraperitoneal injection 175 mg/kg single, compound intravenous injection 100 mg/kg, frequency 8, 0.5 h before chemotherapeutic agent, cycle 10 days): 40%
Relative remission rate (%) (Example 203, Fluorouracil (5-Fu) intraperitoneal injection 175 mg/kg single, compound intravenous injection 100 mg/kg, frequency 8, 1 h before chemotherapeutic agent, cycle 10 days): 30%
Relative remission rate (%) (Example 204, Fluorouracil (5-Fu) intraperitoneal injection 175 mg/kg single, compound intravenous injection 100 mg/kg, frequency 8, 2 h before chemotherapeutic agent, cycle 10 days): 40%
Relative remission rate (%) (Example 205, Fluorouracil (5-Fu) intraperitoneal injection 175 mg/kg single, compound intravenous injection 100 mg/kg, frequency 8, 3 h before chemotherapeutic agent, cycle 10 days): 40%
Relative remission rate (%) (Example 206, Fluorouracil (5-Fu) intraperitoneal injection 175 mg/kg single, compound intravenous injection 100 mg/kg, frequency 8, 4 h before chemotherapeutic agent, cycle 10 days): 30%
Relative remission rate (%) (Example 207, Fluorouracil (5-Fu) intraperitoneal injection 175 mg/kg single, compound intravenous injection 100 mg/kg, frequency 8, 5 h before chemotherapeutic agent, cycle 10 days): 20%
Relative remission rate (%) (Example 208, Fluorouracil (5-Fu) intraperitoneal injection 175 mg/kg single, compound intravenous injection 100 mg/kg, frequency 8, 6 h before chemotherapeutic agent, cycle 10 days): 50%
Relative remission rate (%) (Example 209, Fluorouracil (5-Fu) intraperitoneal injection 175 mg/kg single, compound intravenous injection 100 mg/kg, frequency 8, 7 h before chemotherapeutic agent, cycle 10 days): 50%
Relative remission rate (%) (Example 210, Fluorouracil (5-Fu) intraperitoneal injection 175 mg/kg single, compound intravenous injection 100 mg/kg, frequency 8, 8 h before chemotherapeutic agent, cycle 10 days): 40%
Relative remission rate (%) (Example 211, Fluorouracil (5-Fu) intraperitoneal injection 175 mg/kg single, compound intravenous injection 100 mg/kg, frequency 8, 9 h before chemotherapeutic agent, cycle 10 days): 40%
Relative remission rate (%) (Example 212, Fluorouracil (5-Fu) intraperitoneal injection 175 mg/kg single, compound intravenous injection 100 mg/kg, frequency 8, 10 h before chemotherapeutic agent, cycle 10 days): 30%
Relative remission rate (%) (Example 213, Fluorouracil (5-Fu) intraperitoneal injection 175 mg/kg single, compound intravenous injection 100 mg/kg, frequency 8, 11 h before chemotherapeutic agent, cycle 10 days): 50%
Relative remission rate (%) (Example 214, Fluorouracil (5-Fu) intraperitoneal injection 175 mg/kg single, compound intravenous injection 12.5 mg/kg, frequency 8, 12 h before chemotherapeutic agent, cycle 10 days): 20%
Relative remission rate (%) (Example 215, Fluorouracil (5-Fu) intraperitoneal injection 175 mg/kg single, compound intravenous injection 25 mg/kg, frequency 8, 12 h before chemotherapeutic agent, cycle 10 days): 30%
Relative remission rate (%) (Example 216, Fluorouracil (5-Fu) intraperitoneal injection 175 mg/kg single, compound intravenous injection 50 mg/kg, frequency 8, 12 h before chemotherapeutic agent, cycle 10 days): 30%
Relative remission rate (%) (Example 217, Fluorouracil (5-Fu) intraperitoneal injection 175 mg/kg single, compound intravenous injection 100 mg/kg, frequency 8, 12 h before chemotherapeutic agent, cycle 10 days): 40%
Relative remission rate (%) (Example 218, Fluorouracil (5-Fu) intraperitoneal injection 175 mg/kg single, compound intravenous injection 150 mg/kg, frequency 8, 12 h before chemotherapeutic agent, cycle 10 days): 60%
Relative remission rate (%) (Example 219, Fluorouracil (5-Fu) intraperitoneal injection 175 mg/kg single, compound intravenous injection 240 mg/kg, frequency 8, 12 h before chemotherapeutic agent, cycle 10 days): 60%
Relative remission rate (%) (Example 220, Fluorouracil (5-Fu) intraperitoneal injection 175 mg/kg single, compound intravenous injection 100 mg/kg, frequency 8, 13 h before chemotherapeutic agent, cycle 10 days): 40%
Relative remission rate (%) (Example 221, Fluorouracil (5-Fu) intraperitoneal injection 175 mg/kg single, compound intravenous injection 100 mg/kg, frequency 8, 14 h before chemotherapeutic agent, cycle 10 days): 40%
Relative remission rate (%) (Example 222, Fluorouracil (5-Fu) intraperitoneal injection 175 mg/kg single, compound intravenous injection 100 mg/kg, frequency 8, 16 h before chemotherapeutic agent, cycle 10 days): 50%
Relative remission rate (%) (Example 223, Fluorouracil (5-Fu) intraperitoneal injection 175 mg/kg single, compound intravenous injection 100 mg/kg, frequency 8, 18 h before chemotherapeutic agent, cycle 10 days): 60%
Relative remission rate (%) (Example 224, Fluorouracil (5-Fu) intraperitoneal injection 175 mg/kg single, compound intravenous injection 100 mg/kg, frequency 8, 20 h before chemotherapeutic agent, cycle 10 days): 60%
Relative remission rate (%) (Example 225, Fluorouracil (5-Fu) intraperitoneal injection 175 mg/kg single, compound intravenous injection 100 mg/kg, frequency 8, 22 h before chemotherapeutic agent, cycle 10 days): 30%
Relative remission rate (%) (Example 226, Fluorouracil (5-Fu) intraperitoneal injection 175 mg/kg single, compound intravenous injection 100 mg/kg, frequency 8, 24 h before chemotherapeutic agent, cycle 10 days): 30%
Relative remission rate (%) (Example 227, Fluorouracil (5-Fu) intraperitoneal injection 175 mg/kg single, compound intravenous injection 100 mg/kg, frequency 8, 48 h before chemotherapeutic agent, cycle 10 days): 0%
Relative remission rate (%) (Example 228, Fluorouracil (5-Fu) intravenous injection 250 mg/kg single, compound intraperitoneal injection 100 mg/kg single, 0.5 h before chemotherapeutic agent, cycle 10 days): 30%
Relative remission rate (%) (Example 229, Fluorouracil (5-Fu) intravenous injection 250 mg/kg single, compound intraperitoneal injection 100 mg/kg single, 1 h before chemotherapeutic agent, cycle 10 days): 40%
Relative remission rate (%) (Example 230, Fluorouracil (5-Fu) intravenous injection 250 mg/kg single, compound intraperitoneal injection 100 mg/kg single, 2 h before chemotherapeutic agent, cycle 10 days): 40%
Relative remission rate (%) (Example 231, Fluorouracil (5-Fu) intravenous injection 250 mg/kg single, compound intraperitoneal injection 100 mg/kg single, 4 h before chemotherapeutic agent, cycle 10 days): 60%
Relative remission rate (%) (Example 232, Fluorouracil (5-Fu) intravenous injection 250 mg/kg single, compound intraperitoneal injection 100 mg/kg single, 6 h before chemotherapeutic agent, cycle 10 days): 60%
Relative remission rate (%) (Example 233, Fluorouracil (5-Fu) intravenous injection 250 mg/kg single, compound intraperitoneal injection 100 mg/kg single, 8 h before chemotherapeutic agent, cycle 10 days): 50%
Relative remission rate (%) (Example 234, Fluorouracil (5-Fu) intravenous injection 250 mg/kg single, compound intraperitoneal injection 100 mg/kg single, 10 h before chemotherapeutic agent, cycle 10 days): 50%
Relative remission rate (%) (Example 235, Fluorouracil (5-Fu) intravenous injection 250 mg/kg single, compound intraperitoneal injection 100 mg/kg single, 12 h before chemotherapeutic agent, cycle 10 days): 70%
Relative remission rate (%) (Example 236, Fluorouracil (5-Fu) intravenous injection 250 mg/kg single, compound intraperitoneal injection 100 mg/kg single, 14 h before chemotherapeutic agent, cycle 10 days): 40%
Relative remission rate (%) (Example 237, Fluorouracil (5-Fu) intravenous injection 250 mg/kg single, compound intraperitoneal injection 100 mg/kg single, 16 h before chemotherapeutic agent, cycle 10 days): 40%
Relative remission rate (%) (Example 238, Fluorouracil (5-Fu) intravenous injection 250 mg/kg single, compound intraperitoneal injection 100 mg/kg single, 18 h before chemotherapeutic agent, cycle 10 days): 50%
Relative remission rate (%) (Example 239, Fluorouracil (5-Fu) intravenous injection 250 mg/kg single, compound intraperitoneal injection 100 mg/kg single, 20 h before chemotherapeutic agent, cycle 10 days): 50%
Relative remission rate (%) (Example 240, Fluorouracil (5-Fu) intravenous injection 250 mg/kg single, compound intraperitoneal injection 100 mg/kg single, 24 h before chemotherapeutic agent, cycle 10 days): 50%
Relative remission rate (%) (Example 287, Irinotecan (CPT-11) intraperitoneal injection 260 mg/kg single, compound intravenous injection 150 mg/kg single, 1 h before chemotherapeutic agent, cycle 8 days): 40%
Relative remission rate (%) (Example 288, Irinotecan (CPT-11) intraperitoneal injection 260 mg/kg single, compound intravenous injection 150 mg/kg single, 2 h before chemotherapeutic agent, cycle 8 days): 50%
Relative remission rate (%) (Example 289, Irinotecan (CPT-11) intraperitoneal injection 260 mg/kg single, compound intravenous injection 150 mg/kg single, 3 h before chemotherapeutic agent, cycle 8 days): 50%
Relative remission rate (%) (Example 290, Irinotecan (CPT-11) intraperitoneal injection 260 mg/kg single, compound intravenous injection 150 mg/kg single, 4 h before chemotherapeutic agent, cycle 8 days): 40%
Relative remission rate (%) (Example 291, Irinotecan (CPT-11) intraperitoneal injection 260 mg/kg single, compound intravenous injection 150 mg/kg single, 5 h before chemotherapeutic agent, cycle 8 days): 30%
Relative remission rate (%) (Example 292, Irinotecan (CPT-11) intraperitoneal injection 260 mg/kg single, compound intravenous injection 150 mg/kg single, 6 h before chemotherapeutic agent, cycle 8 days): 40%
Relative remission rate (%) (Example 293, Irinotecan (CPT-11) intraperitoneal injection 260 mg/kg single, compound intravenous injection 150 mg/kg single, 7 h before chemotherapeutic agent, cycle 8 days): 50%
Relative remission rate (%) (Example 294, Irinotecan (CPT-11) intraperitoneal injection 260 mg/kg single, compound intravenous injection 150 mg/kg single, 8 h before chemotherapeutic agent, cycle 8 days): 60%
Relative remission rate (%) (Example 295, Irinotecan (CPT-11) intraperitoneal injection 260 mg/kg single, compound intravenous injection 150 mg/kg single, 9 h before chemotherapeutic agent, cycle 8 days): 70%
Relative remission rate (%) (Example 296, Irinotecan (CPT-11) intraperitoneal injection 260 mg/kg single, compound intravenous injection 150 mg/kg single, 10 h before chemotherapeutic agent, cycle 8 days): 50%
Relative remission rate (%) (Example 297, Irinotecan (CPT-11) intraperitoneal injection 260 mg/kg single, compound intravenous injection 150 mg/kg single, 11 h before chemotherapeutic agent, cycle 8 days): 50%
Relative remission rate (%) (Example 298, Irinotecan (CPT-11) intraperitoneal injection 260 mg/kg single, compound intravenous injection 150 mg/kg single, 12 h before chemotherapeutic agent, cycle 8 days): 40%
Relative remission rate (%) (Example 299, Irinotecan (CPT-11) intraperitoneal injection 260 mg/kg single, compound intravenous injection 150 mg/kg single, 14 h before chemotherapeutic agent, cycle 8 days): 40%
Relative remission rate (%) (Example 300, Irinotecan (CPT-11) intraperitoneal injection 260 mg/kg single, compound intravenous injection 150 mg/kg single, 16 h before chemotherapeutic agent, cycle 8 days): 40%
Relative remission rate (%) (Example 301, Irinotecan (CPT-11) intraperitoneal injection 260 mg/kg single, compound intravenous injection 150 mg/kg single, 18 h before chemotherapeutic agent, cycle 8 days): 50%
Relative remission rate (%) (Example 302, Irinotecan (CPT-11) intraperitoneal injection 260 mg/kg single, compound intravenous injection 150 mg/kg single, 20 h before chemotherapeutic agent, cycle 8 days): 50%
